Experimental findings from US11661439B2, “Peptide hydrogels and use thereof” (The United States of America, as represented by the …, priority 2017, dated 2023) are described below.

A short description of data set [1]: Oscillatory rheology of protein-loaded AcVES3 hydrogels. The data set is classed as physicochemical. Particulars: at 60 min; 0.5 wt % AcVES3 hydrogel loaded with protein. The protocol:
FIGS. 12A and 12B. […] (12A) Dynamic time sweep experiments. Hydrogels were set for 60 min, followed by 30 s of high strain, then a recovery period of 60 min. (12B) Storage moduli after 60 min. Bars outlined in black represent post shear storage moduli after 60 min recovery.
Oscillatory Rheology. Rheological assessment was conducted on a […] AR-G2 rheometer using a 25 mm stainless steel parallel geometry. A representative set of proteins was used to determine whether the fusion domain affected the material properties of the AcVES3 hydrogels. […] This solution was immediately applied to the center of the plate and the upper geometry was lowered to a gap height of […]. The temperature was increased from 5° C. to 37° C. over 100 s at a constant angular frequency of 6 rad s^−1 and 0.2% strain. The storage and loss moduli were monitored for 60 min at a constant angular frequency of 6 rad s^−1 and 0.2% strain at 37° C. […] The moduli were monitored for 60 min (6 rad s^−1, 0.2% strain, 37° C.), followed by the application of 1000% strain for 30 s to shear the gel, after which the strain was reduced to 0.2% and the gel was allowed to recover for 60 min (6 rad s^−1, 0.2% strain).

Data set [2] relates to human dermal fibroblasts (HDFs). As to the kind of experiment: 2D cell culture of HDFs on gel surfaces. The data set is classed as cell-based. Particulars: Essential 8 Medium or serum-free DMEM. The protocol:
2D cell culture on peptide gels. Peptides were initially dissolved in water at 1 wt % on ice and mixed with an equal volume of ice-cold 2×HEPES buffer (50 mM HEPES, 300 mM NaCl, pH 7.4). The peptide solution (50 μL per well) was transferred to a non-tissue culture treated 96-well plates and incubated at 37° C. to initiate gelation. After 1 hour, HDFs (2×10^4 cells per 200 μL, per well) in serum-free DMEM, 10% FBS supplemented DMEM, or Essential 8 Medium (Thermo Fisher Scientific) were seeded on the peptide gels and cultured for 4 days. Bovine type I collagen gels (0.3 wt %, 50 μL per well) were prepared in 96-well plates following manufacturer's instructions.
Cell viability assay. Cell viability was evaluated by live and dead cell staining after 2D and 3D cell culture. Serum-free DMEM containing 1 μM calcein-AM and 2 μM ethidium homodimer-1 was added to the cells (200 μL per well for 2D culture and 500 μL each to the top and bottom of the gels for 3D culture). After incubation at 37° C. for 30 min, live and dead cells were visualized using EVOS FL Auto Cell Imaging System (Thermo Fisher Scientific). For the pseudo-colored composite image of varying heights of encapsulated cells, images of the live-stained cells were captured every 5 μm of height. Then Z-stack images for each 100 μm were flattened using the EVOS software, and the flattened images were pseudo-colored and merged using ImageJ.
Cell proliferation assay. A cell proliferation assay was performed using Cell Counting Kit-8 (CCK-8, Dojindo Molecular Technologies) for 2D and 3D cell culture. Serum-free DMEM containing 10% CCK-8 was added to the gels (200 μL per well for 2D culture; 500 μL to the top of the gels for 3D culture) and incubated for 2 hours at 37° C. Subsequently, media were transferred to 96-well plates (150 μL per well) and their absorbance measured at 450 nm relative to control viabilities from day 0 for 2D cell culture and day 1 for 3D cell culture. Experiments were performed in triplicate.
Cytoskeleton staining. For 2D cell culture, the peptide and collagen gels (70 μL) were prepared as described above on the glass bottom of 35 mm dishes (7 mm glass diameter, MatTek). HDFs in Essential 8 Medium (1.5×10^5 cells per 3 mL) were added to the dishes and incubated at 37° C. for 24 hours. Cells were fixed and permeabilized with 4% paraformaldehyde and 0.1% Triton X-100 in PBS for 15 min, and then blocked with 1% BSA in PBS. Cells were incubated with anti-vinculin antibody (hVIN-1, Sigma) for 1 hour at room temperature. Then, a goat anti-mouse IgG (H+L) cross-adsorbed secondary antibody, Rhodamine Red-X (2 μg mL^−1, Thermo Fisher Scientific), Alexa Fluor 488 phalloidin (5 units mL^−1, Thermo Fisher Scientific), and Hoechst 33342 (5 μg mL^−1, Invitrogen) in PBS were added to the dishes and incubated for 1 hour at room temperature. After washing, cells were visualized using an EVOS FL Auto Cell Imaging System.

Data set [3] can be described thus: TEM analysis of peptide fibrils. It is filed as physicochemical. The conditions noted are these: 30 independent measurements. The protocol: FIG. 4. Fibril visualization of β-hairpin peptide hydrogels. Transmission Electron Microscopy (TEM) images of peptide fibrils and frequency distributions determined from 30 independent measurements (scale bar=100 nm).
Transmission electron microscopy (TEM) analysis. The hydrogel nanostructure of the peptide gels was observed using a Hitachi H-7650 transmission electron microscope at a voltage of 80 kV. A 1 wt % solution of peptide and an equal volume of buffer (50 mM HEPES containing 300 mM NaCl, pH 7.4) was mixed and incubated overnight at 37° C. to allow for gelation. The next day, samples for TEM analysis were prepared by suspending 5 μL of the resulting peptide gel in 195 μL of water to yield a 40-fold dilution. Small amounts (5 μL) of each diluted gel solution were applied to separate carbon coated copper grids. After 1 min, the grid was washed with water. Then, a 1 w/v % uranyl acetate aqueous solution was placed on each grid for negative staining. Excess staining solution was blotted away, left to air dry, and the grids were imaged immediately.

In turn, “EGFP: fluorescent protein EGFP, SEQ ID NO: 19, model heterologous protein with net negative charge” displayed a storage moduli in data set [1] of about 1000 Pa.
As to Ac-VEVSVSVEV^DPPTEVSVEVEV-NH2 [AcVES3], the “cell adhesion of HDFs on gel surface” value is given as “adhered” in data set [2] (day 1) and “most of the cells detached” in data set [2] (day 4). In addition, in data set [3], the average fibril width is reported as 3.1±0.4 nm.
